Reference: US20120129831A1, “Substituted 3-(1,2,4-Oxadiazol-5-yl)-5-Phenylpiperidines” (BAYER PHARMA AKTIENGESELLSCHAFT, priority 2009, published 2012)

Target: T1, human protease activated receptor 1 (PAR-1) (Homo sapiens, UniProt P25116)
T1 construct: the cell stably expresses the endogenous human PAR-1 receptor and the endogenous purinergic receptor P2Y2; endogenous in cells; host or cells: HEK293-derived recombinant cell line; only the mitochondrial aequorin is recombinant
T1 sequence (P25116 22-425): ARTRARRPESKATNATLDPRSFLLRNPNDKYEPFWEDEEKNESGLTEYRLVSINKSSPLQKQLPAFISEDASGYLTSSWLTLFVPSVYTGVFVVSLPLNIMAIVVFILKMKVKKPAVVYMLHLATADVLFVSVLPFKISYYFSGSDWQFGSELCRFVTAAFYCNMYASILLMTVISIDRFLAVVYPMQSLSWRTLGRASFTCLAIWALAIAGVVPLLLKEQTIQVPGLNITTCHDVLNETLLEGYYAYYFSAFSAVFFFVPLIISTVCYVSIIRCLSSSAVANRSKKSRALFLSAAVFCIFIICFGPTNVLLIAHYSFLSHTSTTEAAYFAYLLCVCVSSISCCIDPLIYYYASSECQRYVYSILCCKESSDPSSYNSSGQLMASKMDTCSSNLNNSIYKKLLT
Assay: Cellular functional in vitro test (aequorin luminescence, PAR-1 antagonism)
Format: cell-based
Conditions: recombinant HEK293 aequorin cell line, endogenous human PAR-1; PAR-1 agonist at EC50; calcium luminescence
Text: A recombinant cell line is used to identify antagonists of the human protease activated receptor 1 (PAR-1) and to quantify the activity of the substances described herein. The cell is originally derived from a human embryonal kidney cell (HEK293; ATCC: American Type Culture Collection, Manassas, Va. 20108, USA). The test cell line constitutively expresses a modified form of the calcium-sensitive photoprotein aequorin which, after reconstitution with the cofactor coelenterazine, emits light when the free calcium concentration in the inner mitochondrial compartment is increased (Rizzuto R, Simpson A W, Brini M, Pozzan T.; Nature 1992, 358, 325-327). Additionally, the cell stably expresses the endogenous human PAR-1 receptor and the endogenous purinergic receptor P2Y2. The resulting PAR-1 test cell responds to stimulation of the endogenous PAR-1 or P2Y2 receptor with an intracellular release of calcium ions, which can be quantified through the resulting aequorin luminescence with a suitable luminometer (Milligan G, Marshall F, Rees S, Trends in Pharmacological Sciences 1996, 17, 235-237). […]
Test procedure: The cells are plated out two days (48 h) before the test in culture medium (DMEM F12, supplemented with 10% FCS, 2 mM glutamine, 20 mM HEPES, 1.4 mM pyruvate, 0.1 mg/ml gentamycin, 0.15% Na bicarbonate; BioWhittaker Cat. #BE04-687Q; B-4800 Verviers, Belgium) in 384-well microtitre plates and kept in a cell incubator (96% atmospheric humidity, 5% v/v CO2, 37° C.). […] The test substances are then pipetted onto the microtitre plate, and 5 minutes after the transfer of the test substances into the wells of the microtitre plate the plate is transferred into the luminometer, a PAR-1 agonist concentration which corresponds to EC50 is added and the resulting light signal is immediately measured in the luminometer. To distinguish an antagonist substance action from a toxic action, the endogenous purinergic receptor is immediately subsequently activated with agonist (ATP, final concentration 10 μM) and the resulting light signal is measured.

Compound	IC50 [nM]
O=C(N1CC(O)C1)N1CC(c2ccc(OC(F)(F)F)cc2)CC(c2nc(C3CC3)no2)C1 (single isomer, unassigned) [Example 7, {3-(3-Cyclopropyl-1,2,4-oxadiazol-5-yl)-5-[4-(trifluoromethoxy)phenyl]piperidin-1-yl}(3-hydroxyazetidin-1-yl)methanone]	34
COCCc1noc(C2CC(c3ccc(OC(F)(F)F)cc3)CN(C(=O)N3CC(O)C3)C2)n1 (single isomer, unassigned) [Example 9, (3-Hydroxyazetidin-1-yl){3-[3-(2-methoxyethyl)-1,2,4-oxadiazol-5-yl]-5-[4-(trifluoromethoxy)-phenyl]piperidin-1-yl}methanone]	28
CCOCCc1noc(C2CC(c3ccc(CC)cc3)CN(C(=O)N3CCC(O)CC3)C2)n1 (single isomer, unassigned) [Example 15, {3-[3-(2-Ethoxyethyl)-1,2,4-oxadiazol-5-yl]-5-(4-ethylphenyl)piperidin-1-yl}(4-hydroxypiperidin-1-yl)methanone]	8.6
